Measurements published in PubChem BioAssay AID330 (DTP/NCI, 2004).
“And” between values parts separate entries of the source, which are not always exact repeats. Equal values may be shown once. Inconclusive results and toxic doses are left out.

Tested on: P388 leukemia ip, CD2F1 mice, survival T/C
Assay: NCI In Vivo Anticancer Drug Screen. Data for tumor model P388 Leukemia (intraperitoneal) in CD2F1 (CDF1) mice
Conditions: endpoint: median survival time, higher = longer survival
Method in brief: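 Mice carrying the transplanted tumor received test compound or vehicle. Survival was recorded in each group, and the value is the treated-group measurement divided by that of the vehicle-treated control group.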

[1] = dose: 100.0 mg/kg/injection, schedule: Q01DX009 (ip), vehicle: saline
[2] = dose: 200.0 mg/kg/injection, schedule: Q01DX009 (ip), vehicle: saline
[3] = dose: 400.0 mg/kg/injection, schedule: Q01DX009 (ip), vehicle: saline
[4] = dose: 100.0 mg/kg/injection, schedule: Q01DX001 (ip), vehicle: Klucel (hydroxypropylcellulose) (HPC)
[5] = dose: 50.0 mg/kg/injection, schedule: Q01DX005 (ip), vehicle: saline with Tween-80
[6] = dose: 100.0 mg/kg/injection, schedule: Q01DX005 (ip), vehicle: saline with Tween-80
[7] = dose: 200.0 mg/kg/injection, schedule: Q01DX005 (ip), vehicle: saline with Tween-80

In the case of `CCOC(=O)CCOCOCCC(=O)OCC`, the T/C [1] is reported as 100 % of control, the T/C [2] is reported as 115 % of control and the T/C [3] is reported as 110 % of control.

For `O=C1CC(c2ccc(Cl)cc2)C(c2ccc(Cl)cc2)C1=O` (configuration not stated), the T/C (dose: 6.25 mg/kg/injection, schedule: Q01DX001 (ip), vehicle: Klucel (hydroxypropylcellulose) (HPC)) was 107 % of control, the T/C (dose: 12.5 mg/kg/injection, schedule: Q01DX001 (ip), vehicle: Klucel (hydroxypropylcellulose) (HPC)) was 112 % of control and the T/C (dose: 25.0 mg/kg/injection, schedule: Q01DX001 (ip), vehicle: Klucel (hydroxypropylcellulose) (HPC)) was 106 % of control and 86 % of control. For the same compound, the T/C [4] was 99 % of control.

In the case of `Cc1noc(NS(=O)(=O)c2ccc(N=c3c4ccccc4n(Cc4ccccc4)c4ccccc34)cc2)c1C`, the T/C [5] is reported as 96 % of control, the T/C [6] is reported as 94 % of control and the T/C [7] is reported as 87 % of control.

For `Cc1[nH]ccc(=O)c1O`, the T/C (dose: 16.0 mg/kg/injection, schedule: Q01DX009 (ip), vehicle: saline with Tween-80) was 105 % of control, the T/C (dose: 32.0 mg/kg/injection, schedule: Q01DX009 (ip), vehicle: saline with Tween-80) was 110 % of control and the T/C (dose: 50.0 mg/kg/injection, schedule: Q01DX009 (ip), vehicle: saline) was 123 % of control. The T/C [1] was 124 % of control, the T/C [2] was 153 % of control and the T/C [3] was 98 % of control. The T/C (dose: 512.0 mg/kg/injection, schedule: Q01DX009 (ip), vehicle: saline with Tween-80) was 91 % of control.

For `COc1cc(NC(C)CCCNC(C)C)c2ncccc2c1OC` (configuration not stated), the T/C (dose: 6.25 mg/kg/injection, schedule: Q01DX005 (ip), vehicle: saline) was 103 % of control, the T/C (dose: 12.5 mg/kg/injection, schedule: Q01DX005 (ip), vehicle: saline) was 93 % of control and the T/C (dose: 25.0 mg/kg/injection, schedule: Q01DX005 (ip), vehicle: saline) was 93 % of control.

For `C=C(C)C12CC(C)C34OC5(CCCCCCCC(C)C6C(C)C(OC(=O)c7ccccc7)C(O)(C(O)C7(CO)OC7C3C1O5)C64)O2` (configuration not stated), the T/C (dose: 3.0 micrograms/kg/injection, schedule: Q01DX009 (ip), vehicle: saline + alcohol) was 107 % of control, the T/C (dose: 5.0 micrograms/kg/injection, schedule: Q01DX009 (ip), vehicle: saline + alcohol) was 109 % of control and the T/C (dose: 10.0 micrograms/kg/injection, schedule: Q01DX009 (ip), vehicle: saline + alcohol) was 118 % of control.

`O=S1(=O)N=C(N2CCOCC2)c2ccccc21` was tested, and the T/C [5] was 101 % of control, the T/C [6] was 101 % of control and the T/C [7] was 99 % of control.

`Cc1nn(-c2ccccc2)c(=O)n2c1nc1ccccc12` was tested, and the T/C (dose: 60.0 mg/kg/injection, schedule: Q01DX005 (ip), vehicle: Klucel (hydroxypropylcellulose) (HPC)) was 99 % of control, the T/C (dose: 120.0 mg/kg/injection, schedule: Q01DX005 (ip), vehicle: Klucel (hydroxypropylcellulose) (HPC)) was 97 % of control and the T/C (dose: 240.0 mg/kg/injection, schedule: Q01DX005 (ip), vehicle: Klucel (hydroxypropylcellulose) (HPC)) was 91 % of control.

With `COc1cccc2c1C(=O)c1c(O)c3c(c(O)c1C2=O)C[C@@](O)(C(C)=O)C[C@@H]3OC1CC(NC(=O)C(N)CC(C)C)C(O)C(C)O1` (some centres not stated) the T/C (dose: 3.12 mg/kg/injection, schedule: Q04DX003 (ip), vehicle: saline) was 109 % of control, the T/C (dose: 6.25 mg/kg/injection, schedule: Q04DX003 (ip), vehicle: saline) was 119 % of control and the T/C (dose: 25.0 mg/kg/injection, schedule: Q04DX003 (ip), vehicle: saline) was 163 % of control and 186 % of control. The T/C (dose: 50.0 mg/kg/injection, schedule: Q04DX003 (ip), vehicle: saline) was 163 % of control.

In the case of `CC1CCCCC1O` (configuration not stated), the T/C (dose: 50.0 mg/kg/injection, schedule: Q04DX003 (ip), vehicle: saline with Tween-80) is reported as 110 % of control, the T/C (dose: 100.0 mg/kg/injection, schedule: Q04DX003 (ip), vehicle: saline with Tween-80) is reported as 115 % of control and the T/C (dose: 200.0 mg/kg/injection, schedule: Q04DX003 (ip), vehicle: saline with Tween-80) is reported as 115 % of control.

In the case of `Nc1c(-c2noc(=O)[nH]2)ncn1Cc1ccccc1`, the T/C [4] is reported as 97 % of control, the T/C (dose: 200.0 mg/kg/injection, schedule: Q01DX001 (ip), vehicle: Klucel (hydroxypropylcellulose) (HPC)) is reported as 92 % of control and the T/C (dose: 400.0 mg/kg/injection, schedule: Q01DX001 (ip), vehicle: Klucel (hydroxypropylcellulose) (HPC)) is reported as 99 % of control.

In the case of `Nc1nc(/C=C(/O)c2ccccc2)c2ncn(C3OC(CO)C(O)C3O)c2n1` (configuration not stated), the T/C (dose: 50.0 mg/kg/injection, schedule: Q01DX009 (ip), vehicle: saline with Tween-80) is reported as 106 % of control, the T/C (dose: 100.0 mg/kg/injection, schedule: Q01DX009 (ip), vehicle: saline with Tween-80) is reported as 103 % of control and the T/C (dose: 200.0 mg/kg/injection, schedule: Q01DX009 (ip), vehicle: saline with Tween-80) is reported as 114 % of control.
